Each molecule was assayed on test plant species (assay: Post-emergent herbicidal activity test (greenhouse, foliar spray, visual growth reduction)). Settings: post-emergence, 336 h, ALOMY: blackgrass (Alopecurus myosuroides), 140 g ai/ha, 14 days after application, read-out: Visual Growth Reduction (%) 14 Days After Application, ALOMY.
Type: in vivo
Summary of the method: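 Greenhouse plants at first–second true leaf stage sprayed overhead at 187 L/ha with compound in acetone/water/isopropanol/DMSO/crop oil/X-77 carrier; controls received solvent blank. Injury rated visually after 14 d on a 0–100% scale versus untreated and control plants, converted to growth reduction.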

With COC(=O)c1nc(-c2ccc3cc[nH]c3c2F)ccc1Cl [F69, Methyl 3-chloro-6-(7-fluoro-1H-indol-6-yl)picolinate] as the molecule, how does the pest or weed control at 140 g/ha read?
The pest or weed control at 140 g/ha was 0 to 29%.

Same assay, conditions: post-emergence, 336 h, AMARE: redroot pigweed (Amaranthus retroflexus), 140 g ai/ha, 14 days after application, read-out: Visual Growth Reduction (%) 14 Days After Application, AMARE

COC(=O)c1nc(-c2ccc3cc[nH]c3c2F)ccc1Cl [F69, Methyl 3-chloro-6-(7-fluoro-1H-indol-6-yl)picolinate] was tested. Which pest or weed control at 140 g/ha did it give?
Its pest or weed control at 140 g/ha is 0 to 29%.

Same assay, conditions: post-emergence, 336 h, AVEFA: wild oat (Avena fatua), 140 g ai/ha, 14 days after application, read-out: Visual Growth Reduction (%) 14 Days After Application, AVEFA

Which pest or weed control at 140 g/ha does the source give for COC(=O)c1nc(-c2ccc3cc[nH]c3c2F)ccc1Cl [F69, Methyl 3-chloro-6-(7-fluoro-1H-indol-6-yl)picolinate] here?
Its pest or weed control at 140 g/ha is 0 to 29%.

Same assay, conditions: post-emergence, 336 h, CHEAL: lambsquarters (Chenopodium album), 140 g ai/ha, 14 days after application, read-out: Visual Growth Reduction (%) 14 Days After Application, CHEAL

With COC(=O)c1nc(-c2ccc3cc[nH]c3c2F)ccc1Cl [F69, Methyl 3-chloro-6-(7-fluoro-1H-indol-6-yl)picolinate] as the molecule, how does the pest or weed control at 140 g/ha read?
Its pest or weed control at 140 g/ha is 0 to 29%.

Same assay, conditions: post-emergence, 336 h, CIRAR: canada thistle (Cirsium arvense), 140 g ai/ha, 14 days after application, read-out: Visual Growth Reduction (%) 14 Days After Application, CIRAR

COC(=O)c1nc(-c2ccc3cc[nH]c3c2F)ccc1Cl [F69, Methyl 3-chloro-6-(7-fluoro-1H-indol-6-yl)picolinate] was tested. Which pest or weed control at 140 g/ha did it give?
Its pest or weed control at 140 g/ha is 0 to 29%.

Same assay, conditions: post-emergence, 336 h, CYPES: yellow nutsedge (Cyperus esculentus), 140 g ai/ha, 14 days after application, read-out: Visual Growth Reduction (%) 14 Days After Application, CYPES

COC(=O)c1nc(-c2ccc3cc[nH]c3c2F)ccc1Cl [F69, Methyl 3-chloro-6-(7-fluoro-1H-indol-6-yl)picolinate] was tested. Which pest or weed control at 140 g/ha did it give?
Its pest or weed control at 140 g/ha is 0 to 29%.

Same assay, conditions: post-emergence, 336 h, DIGSA: crabgrass (Digitaria sanguinalis), 140 g ai/ha, 14 days after application, read-out: Visual Growth Reduction (%) 14 Days After Application, DIGSA

For COC(=O)c1nc(-c2ccc3cc[nH]c3c2F)ccc1Cl [F69, Methyl 3-chloro-6-(7-fluoro-1H-indol-6-yl)picolinate], which pest or weed control at 140 g/ha is on record?
The pest or weed control at 140 g/ha was 0 to 29%.

Same assay, conditions: post-emergence, 336 h, ECHCG: barnyardgrass (Echinochloa crus-galli), 140 g ai/ha, 14 days after application, read-out: Visual Growth Reduction (%) 14 Days After Application, ECHCG

For COC(=O)c1nc(-c2ccc3ccccc3c2)c(F)cc1Cl [F340, Methyl 3-chloro-5-fluoro-6-(naphthalen-2-yl)picolinate], which pest or weed control at 140 g/ha is on record?
The pest or weed control at 140 g/ha was 0 to 29%.

For COC(=O)c1nc(-c2ccc3cc[nH]c3c2F)ccc1Cl [F69, Methyl 3-chloro-6-(7-fluoro-1H-indol-6-yl)picolinate], which pest or weed control at 140 g/ha is on record?
Its pest or weed control at 140 g/ha is 0 to 29%.

Same assay, conditions: post-emergence, 336 h, IPOHE: ivy-leaf morning glory (Ipomoea hederacea), 140 g ai/ha, 14 days after application, read-out: Visual Growth Reduction (%) 14 Days After Application, IPOHE

COC(=O)c1nc(-c2ccc3ccccc3c2)c(F)cc1Cl [F340, Methyl 3-chloro-5-fluoro-6-(naphthalen-2-yl)picolinate] was tested. Which pest or weed control at 140 g/ha did it give?
The pest or weed control at 140 g/ha was 0 to 29%.

Which pest or weed control at 140 g/ha does the source give for COC(=O)c1nc(-c2ccc3cc[nH]c3c2F)ccc1Cl [F69, Methyl 3-chloro-6-(7-fluoro-1H-indol-6-yl)picolinate] here?
The pest or weed control at 140 g/ha was 0 to 29%.

Same assay, conditions: post-emergence, 336 h, KCHSC: kochia (Bassia scoparia), 140 g ai/ha, 14 days after application, read-out: Visual Growth Reduction (%) 14 Days After Application, KCHSC

COC(=O)c1nc(-c2ccc3ccccc3c2)c(F)cc1Cl [F340, Methyl 3-chloro-5-fluoro-6-(naphthalen-2-yl)picolinate] was tested. Which pest or weed control at 140 g/ha did it give?
Its pest or weed control at 140 g/ha is 0 to 29%.

Same assay, conditions: post-emergence, 336 h, ORYSA: rice (Oryza sativa), 140 g ai/ha, 14 days after application, read-out: Visual Growth Reduction (%) 14 Days After Application, ORYSA

For COC(=O)c1nc(-c2ccc3ccccc3c2)c(F)cc1Cl [F340, Methyl 3-chloro-5-fluoro-6-(naphthalen-2-yl)picolinate], which pest or weed control at 140 g/ha is on record?
Its pest or weed control at 140 g/ha is 0 to 29%.

How did the pest or weed control at 140 g/ha turn out when COC(=O)c1nc(-c2ccc3cc[nH]c3c2F)ccc1Cl [F69, Methyl 3-chloro-6-(7-fluoro-1H-indol-6-yl)picolinate] was run?
The pest or weed control at 140 g/ha was 0 to 29%.

Same assay, conditions: post-emergence, 336 h, SETFA: giant foxtail (Setaria faberi), 140 g ai/ha, 14 days after application, read-out: Visual Growth Reduction (%) 14 Days After Application, SETFA

How did the pest or weed control at 140 g/ha turn out when COC(=O)c1nc(-c2ccc3ccccc3c2)c(F)cc1Cl [F340, Methyl 3-chloro-5-fluoro-6-(naphthalen-2-yl)picolinate] was run?
Its pest or weed control at 140 g/ha is 0 to 29%.

Same assay, conditions: post-emergence, 336 h, SORVU: grain sorghum (Sorghum vulgare), 140 g ai/ha, 14 days after application, read-out: Visual Growth Reduction (%) 14 Days After Application, SORVU

Which pest or weed control at 140 g/ha does the source give for COC(=O)c1nc(-c2ccc3ccccc3c2)c(F)cc1Cl [F340, Methyl 3-chloro-5-fluoro-6-(naphthalen-2-yl)picolinate] here?
The pest or weed control at 140 g/ha was 0 to 29%.

With COC(=O)c1nc(-c2ccc3cc[nH]c3c2F)ccc1Cl [F69, Methyl 3-chloro-6-(7-fluoro-1H-indol-6-yl)picolinate] as the molecule, how does the pest or weed control at 140 g/ha read?
The pest or weed control at 140 g/ha was 0 to 29%.

Same assay, conditions: post-emergence, 336 h, STEME: common chickweed (Stellaria media), 140 g ai/ha, 14 days after application, read-out: Visual Growth Reduction (%) 14 Days After Application, STEME

Which pest or weed control at 140 g/ha does the source give for COC(=O)c1nc(-c2ccc3ccccc3c2)c(F)cc1Cl [F340, Methyl 3-chloro-5-fluoro-6-(naphthalen-2-yl)picolinate] here?
Its pest or weed control at 140 g/ha is 0 to 29%.

With COC(=O)c1nc(-c2ccc3cc[nH]c3c2F)ccc1Cl [F69, Methyl 3-chloro-6-(7-fluoro-1H-indol-6-yl)picolinate] as the molecule, how does the pest or weed control at 140 g/ha read?
Its pest or weed control at 140 g/ha is 0 to 29%.

Same assay, conditions: post-emergence, 336 h, TRZAS: wheat, spring (Triticum aestivum), 140 g ai/ha, 14 days after application, read-out: Visual Growth Reduction (%) 14 Days After Application, TRZAS

How did the pest or weed control at 140 g/ha turn out when COC(=O)c1nc(-c2ccc3ccccc3c2)c(F)cc1Cl [F340, Methyl 3-chloro-5-fluoro-6-(naphthalen-2-yl)picolinate] was run?
Its pest or weed control at 140 g/ha is 0 to 29%.

Same assay, conditions: post-emergence, 336 h, blackgrass (Alopecurus myosuroides), 14 Days After Application, 140 g ai/ha, read-out: Visual Growth Reduction (%) ALOMY

For COC(=O)c1nc(-c2ccc3ccccc3c2)c(F)cc1Cl [F340, Methyl 3-chloro-5-fluoro-6-(naphthalen-2-yl)picolinate], which pest or weed control at 140 g/ha is on record?
The pest or weed control at 140 g/ha was 0 to 29%.

Same assay, conditions: post-emergence, 336 h, crabgrass (Digitaria sanguinalis), 14 Days After Application, 140 g ai/ha, read-out: Visual Growth Reduction (%) DIGSA

For COC(=O)c1nc(-c2ccc3ccccc3c2)c(F)cc1Cl [F340, Methyl 3-chloro-5-fluoro-6-(naphthalen-2-yl)picolinate], which pest or weed control at 140 g/ha is on record?
The pest or weed control at 140 g/ha was 0 to 29%.

Same assay, conditions: post-emergence, 336 h, lambsquarters (Chenopodium album), 14 Days After Application, 140 g ai/ha, read-out: Visual Growth Reduction (%) CHEAL

Which pest or weed control at 140 g/ha does the source give for COC(=O)c1nc(-c2ccc3ccccc3c2)c(F)cc1Cl [F340, Methyl 3-chloro-5-fluoro-6-(naphthalen-2-yl)picolinate] here?
The pest or weed control at 140 g/ha was 0 to 29%.

Same assay, conditions: post-emergence, 336 h, redroot pigweed (Amaranthus retroflexus), 14 Days After Application, 140 g ai/ha, read-out: Visual Growth Reduction (%) AMARE

With COC(=O)c1nc(-c2ccc3ccccc3c2)c(F)cc1Cl [F340, Methyl 3-chloro-5-fluoro-6-(naphthalen-2-yl)picolinate] as the molecule, how does the pest or weed control at 140 g/ha read?
The pest or weed control at 140 g/ha was 0 to 29%.

Same assay, conditions: post-emergence, 336 h, wild oat (Avena fatua), 14 Days After Application, 140 g ai/ha, read-out: Visual Growth Reduction (%) AVEFA

How did the pest or weed control at 140 g/ha turn out when COC(=O)c1nc(-c2ccc3ccccc3c2)c(F)cc1Cl [F340, Methyl 3-chloro-5-fluoro-6-(naphthalen-2-yl)picolinate] was run?
The pest or weed control at 140 g/ha was 0 to 29%.

Same assay, conditions: post-emergence, 336 h, yellow nutsedge (Cyperus esculentus), 14 Days After Application, 140 g ai/ha, read-out: Visual Growth Reduction (%) CYPES

With COC(=O)c1nc(-c2ccc3ccccc3c2)c(F)cc1Cl [F340, Methyl 3-chloro-5-fluoro-6-(naphthalen-2-yl)picolinate] as the molecule, how does the pest or weed control at 140 g/ha read?
Its pest or weed control at 140 g/ha is 0 to 29%.
